According to US20230200362A1, “MODEL ORGANISMS HUMANIZED FOR DRUG DISCOVERY AND SCREENING” (NemaMetrix, Inc, priority 2019, published 2023):
Where two headings read alike, the source gives them in different places. One block for each compound: values may come before it.

Tests used:
[1] = mouse model; combination with cannabidiol; cited from earlier work
pharynx::SLC6A4 = assay: ScreenChip pharyngeal pumping frequency in SLC6A4 transgenic C. elegans; format: in vivo; conditions: 10 mM serotonin, first-day adults, 20 minutes incubation; FIG. 2B
Text: Provided herein are transgenic nematodes and methods of preparing same for expression, as well as methods for using the same drug discovery for human therapeutic targets, such as that illustrated in FIG. 1 and described in more detail herein, wherein the therapeutic target gene is first optimized for expression in a host nematode and then incorporated into the genome of the nematode. Human Solute Carrier Family 6 Member 4 (SLC6A4) is known to transport serotonin out of the synaptic space, thus terminating the action of serotonin. […] Inhibitors of SLC6A4, selective serotonin reuptake inhibitors (SSRls), are commonly used to treat major depressive disorder and anxiety but are also known to cause many unpleasant side-effects. New SSRls can be discovered using the SLC6A4 overexpressing C. elegans transgenic nematodes described in this illustrative example. As shown below, C. elegans transgenic animals overexpressing human SLC6A4 in the pharyngeal muscle show a decrease in pumping frequency when stimulated to pump by food (a mild stimulus) as compared to the wildtype. These animals can be screened to identify novel SSRls. […] Each EPG recording is two minutes in duration and the experiment is replicated in triplicate on different days. […]

STXBP1(R406H) = conditions: strain containing the R406H variant exposed to trehalose; cited from earlier work
DAF-12 [2] = biological target: T1, DAF-12 (Caenorhabditis elegans, UniProt G5EFF5); assay: lin-42::GFP reporter agonist response; format: in vivo, C. elegans
T1 construct: endogenous in cells; host or cells: whole C. elegans animals carrying lin-42::GFP or mtl-1::GFP promoter-fusion reporters
T1 sequence (G5EFF5 1-753): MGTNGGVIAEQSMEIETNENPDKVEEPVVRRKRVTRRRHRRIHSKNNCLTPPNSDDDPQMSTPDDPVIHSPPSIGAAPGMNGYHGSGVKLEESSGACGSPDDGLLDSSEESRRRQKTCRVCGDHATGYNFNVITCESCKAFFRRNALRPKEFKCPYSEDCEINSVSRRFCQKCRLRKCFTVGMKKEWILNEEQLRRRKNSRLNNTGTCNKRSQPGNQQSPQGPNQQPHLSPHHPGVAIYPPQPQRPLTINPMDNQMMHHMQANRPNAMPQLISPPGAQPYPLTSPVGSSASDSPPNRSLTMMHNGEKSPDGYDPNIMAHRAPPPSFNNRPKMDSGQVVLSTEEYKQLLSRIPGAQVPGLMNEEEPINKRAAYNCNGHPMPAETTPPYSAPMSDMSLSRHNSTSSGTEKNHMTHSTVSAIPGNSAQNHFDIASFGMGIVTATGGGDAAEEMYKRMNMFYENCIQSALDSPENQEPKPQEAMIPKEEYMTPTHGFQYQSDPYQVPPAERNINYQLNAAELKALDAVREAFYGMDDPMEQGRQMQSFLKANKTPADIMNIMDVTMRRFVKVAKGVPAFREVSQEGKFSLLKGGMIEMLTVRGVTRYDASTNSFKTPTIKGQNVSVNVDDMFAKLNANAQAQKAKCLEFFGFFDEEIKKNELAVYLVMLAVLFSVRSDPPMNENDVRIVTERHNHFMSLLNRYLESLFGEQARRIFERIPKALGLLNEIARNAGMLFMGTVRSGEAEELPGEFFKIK
Text: (§1) Chimeric proteins made with the daf-12 nuclear hormone receptor (NHR) can be used for discovery of agonist and antagonist of human NHRs and detect ligands of human NHRs. In C. elegans, the daf-12 protein activity is a key regulator of development. When daf-12 is activated by dafachronic acid under normal growth conditions, animals will proceed to their reproductive life stage. However, when animals face unfavorable conditions, dafachronic acid is not produced and the dauer program is activated leading animals into a stress-resistant arrested state. The unfavorable conditions can be mimicked by treatment with a DAF-12 antagonist, dafadine. Dafadine treatment overcomes the growth condition signal and animals enter the arrested state. Reporter lines can be used to monitor daf-12 chimera activity. In order to create reporter lines for agonist and antagonist discovery, the transcriptional response to treatment with dafachronic acid or dafadine was determined. Dauer animals were treated with 500 nM dafachronic acid and harvested for RNA preparation after four hours of exposure. RNA samples were processed and sent for RNA sequence analysis. […]
(§2) In this illustrative example, animals in the first larval stage were treated with 100uM dafadine for four hours and harvested for RNA preparation and analysis. Two reporter lines were identified by observation of fluorescence after drug treatment. […]

C. elegans = assay: phenotypic assay (% adult survival); format: in vivo
DAF-12 [3] = biological target: T1, DAF-12; assay: mtl-1::GFP reporter antagonist response; format: in vivo, C. elegans
Text: as §1, §2

Compound: NC(=O)N1c2ccccc2C=Cc2ccccc21 [carbamazepine]
interaction with CBD [1]: antagonize

Compound: CC[C@@H](C(N)=O)N1CCCC1=O [levetiracetam]
interaction with CBD [1]: acts synergistically

Compound: NCCc1c[nH]c2ccc(O)cc12 [serotonin, 5-Hydroxytryptamine]
rate of pharyngeal pumping in SLC6A4 line (pharynx::SLC6A4): restored

Compound: OC[C@H]1O[C@H](O[C@H]2O[C@H](CO)[C@@H](O)[C@H](O)[C@H]2O)[C@H](O)[C@@H](O)[C@@H]1O [trehalose]
levels of aldicarb-induced paralysis (STXBP1(R406H)): increase to wild-type levels

sensitivity of reporter versus phenotypic assay (DAF-12 [2]; lin-42::GFP reporter vs phenotype): at least 40 x | EC50 (DAF-12 [2]; titrated with dafachronic acid, FIG. 3D): ~0.00049 µM
Compound: dafachronic acid
EC50 (C. elegans; dafachronic acid, FIG. 3E, read-out: EC50, animal's phenotypic response): 0.017 µM

sensitivity of reporter versus phenotypic assay (DAF-12 [3]; mtl-1::GFP reporter vs phenotypic assay): 9 x | EC50 (DAF-12 [3]; titrated with dafadine, FIG. 3C): 5.2 µM
Compound: dafadine
EC50 (C. elegans; dafadine, read-out: EC50, phenotypic assay): 48 µM
